The numbers were not newly measured in EP1228757B1 (Uni-Pharma Kleon Tsetis Pharmaceutical Laboratories S.A., priority 2001, dated 2002), which cites them from elsewhere.

The data set relates to albino rats. Conditions: endo-peritoneally administered to albino rats.

One may read the LD50 as the dose at which mortality reaches 50%. Consider `CC(O)CO` (centres unmarked) [Propylene glycol], for which the LD50 result was “higher than 8000 mg/kg”.
For the compound Glycerol formal, the LD50 is on record as 3000 mg/kg.
